{
  "source": "paper PMC7663272",
  "about": "“Discovery of Tricyclic Pyranochromenone as Novel Bruton’s Tyrosine Kinase Inhibitors with In Vivo Antirheumatic Activity” (International Journal of Molecular Sciences, 2020)",
  "key": {"BTK-wt": {"biological_target": "T1, BTK-wt (Homo sapiens, UniProt Q06187)", "T1 construct": "purchased Reaction Biology Corporation", "T1 sequence (Q06187 whole entry)": "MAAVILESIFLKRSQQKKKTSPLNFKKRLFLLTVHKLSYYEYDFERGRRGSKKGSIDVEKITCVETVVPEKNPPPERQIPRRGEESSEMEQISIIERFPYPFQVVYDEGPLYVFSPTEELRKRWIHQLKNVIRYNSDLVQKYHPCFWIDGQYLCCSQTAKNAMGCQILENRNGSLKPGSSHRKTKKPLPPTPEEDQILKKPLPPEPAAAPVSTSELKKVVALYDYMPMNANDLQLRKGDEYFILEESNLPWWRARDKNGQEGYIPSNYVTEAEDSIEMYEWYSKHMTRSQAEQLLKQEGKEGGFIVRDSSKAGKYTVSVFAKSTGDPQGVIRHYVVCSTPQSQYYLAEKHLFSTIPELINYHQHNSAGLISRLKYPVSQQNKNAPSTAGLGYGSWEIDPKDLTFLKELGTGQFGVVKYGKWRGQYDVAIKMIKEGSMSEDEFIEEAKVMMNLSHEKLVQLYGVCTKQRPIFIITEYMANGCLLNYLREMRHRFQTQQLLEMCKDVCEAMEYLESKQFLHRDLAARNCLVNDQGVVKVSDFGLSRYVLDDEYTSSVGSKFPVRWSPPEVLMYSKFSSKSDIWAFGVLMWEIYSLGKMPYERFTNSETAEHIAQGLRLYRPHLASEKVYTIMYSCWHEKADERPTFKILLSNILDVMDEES", "assay": "HotSpot kinase enzymatic assay, BTK-wt", "assay_type": "biochemical", "method": "Kinase enzymatic assays for BTK, BMX, TXK, TEC, ITK, EGFR, ERBB2, ERBB4, and JAK3 were performed at Reaction Biology Corporation (www.reactionbiology.com, Malvern, PA, USA) using the HotSpot assay platform. Briefly, specific kinase/substrate pairs and the required cofactors were prepared in a reaction buffer comprising 20 mM HEPES (pH 7.5), 10 mM MgCl2, 1 mM EGTA, 0.02% Brij35, 0.02 mg/mL BSA, 0.1 mM Na3VO4, 2 mM DTT, and 1% DMSO. The compounds were added to the reaction mixture and allowed to incubate. Approximately 20 min later, a mixture of ATP (Sigma-Aldrich, St. Louis, MO, USA) and ^33P ATP (PerkinElmer, Waltham, MA, USA) was added to the reaction mixture at a final concentration of 10 μM. The reactions were performed at room temperature for 120 min; subsequently, the reactions were spotted onto P81 ion exchange filter papers (Whatman Inc., Maidstone, UK). […] GraphPad Prism software was used to obtain the IC50 values and perform curve fitting."}, "[1]": {"assay": "GIT-PAMPA in vitro permeability assay", "assay_type": "in vitro ADME", "method": "GIT-PAMPA was performed according to the manufacturer’s instructions (Pion Inc., Billerica, MA, USA). Briefly, the test compound was diluted in donor buffer (pH 7.4) to obtain a concentration of 50 μM. Then, 200 μL of this solution was added to the lower part of a 96-well PAMPA sandwich plate. The transmembrane side of the donor part was coated with a GIT-0 lipid solution, and 200 μL of the acceptor buffer was added to the upper part of the PAMPA sandwich plate. After incubating for 4 h at 25 °C, each sample was transferred to a fresh UV plate, after which the UV spectra were measured at wavelengths of 250–498 nm, and the permeability rate (Pe, 10^−6 cm/sec) was analyzed using the Pion PAMPA Explorer software (version 3.8, Pion Inc., Billerica, MA, USA)."}, "[2]": {"test_system": "IL-6 production in LPS-stimulated THP-1 cells", "assay": "LPS-induced IL-6 release in THP-1 cells (ELISA)", "assay_type": "cell-based, human", "from_the_text": "(§1) BTK plays a critical role in high-affinity IgE receptor (FcεRI) and B cell receptor (BCR) signaling, resulting in the release of proinflammatory cytokines. Therefore, BTK inhibitor treatment can reduce the production of both lymphoid and myeloid cytokines. […] We examined the cellular effects of compound 8 on the production of cytokines IL-6 and TNF-α in LPS-stimulated THP-1 cells. Following treatment with LPS alone or LPS and compound 8, the levels of cytokines secreted by THP-1 cells were assessed (Figure 5). LPS increased the output of proinflammatory cytokines.\n(§2) THP-1 cells were obtained from the American Type Culture Collection (ATCC, Manassas, VA, USA). The cells were cultured in RPMI-1640 supplemented with 10% FBS, 1% P/S, and 0.05 mM 2-mercaptoethanol and maintained at 37 °C and 5% CO2 in a humidified incubator. Cytokine secretion (hIL-6 and TNF-α) in the culture supernatants of the THP-1 cells was measured using a human cytokine ELISA kit (Abcam). Differentiated THP-1 cells were treated with agents and LPS for 24 h, after which the cell culture media was centrifuged at 2000× g for 10 min to remove debris. Briefly, each sample (50 μL) or standard was mixed with the appropriate detection antibody and incubated for 1 h at room temperature on a plate shaker. […] Subsequently, 100 μL of stop solution was added to each well, and the optical density (OD) was measured at 450 nm. […]"}, "[3]": {"test_system": "TNF-α production in LPS-stimulated THP-1 cells", "assay": "LPS-induced TNF-α release in THP-1 cells (ELISA)", "assay_type": "cell-based, human", "from_the_text": "as §1, §2"}, "[4]": {"details": "LPS-stimulated differentiated THP-1 cells, 24 h, ELISA"}, "[5]": {"details": "compound at 10 μM, ibrutinib at 2 μM"}},
  "note": "Like-named read-outs stand apart in the source and are kept apart here.",
  "data": [
    {"smiles": "C=CC(=O)O[C@H]1Cc2cc3ccc(=O)oc3cc2OC1(C)C", "note": "[Compound 8, (7S)-(+)-Acrylic acid, 8,8-dimethyl-2-oxo-6,7-dihydro-2H,8H-pyrano [3,2-g]chromen-7-yl ester]", "values": [
      {"measurement": "inhibition at 10 µM", "setting": "BTK-wt; vs negative control (DMSO), mean of two separate experiments, NA = not active at 10 µM, read-out: % Inhibition (10 µM) BTK-wt", "value": 98.2, "unit": "%"},
      {"measurement": "IC50", "setting": "BTK-wt; HotSpot assay, 10 μM ATP, GraphPad Prism", "value": 800, "unit": "nM"},
      {"measurement": "inhibition at 10 µM", "setting": "BTK-wt; Table 2 selectivity profile, mean of two experiments, read-out: % Inhibition at 10 µM, BTK", "value": 98.2, "unit": "%"},
      {"measurement": "kinase selectivity (in words)", "setting": "BTK-wt; over EGFR and TEC family kinases, JAK3", "value": "selective for BTK over ITK, EGFR, ERBB4, and JAK3"},
      {"measurement": "permeability (in words)", "setting": "[1]", "value": "excellent"},
      {"measurement": "production of IL-6", "setting": "[2]; [4]", "value": "significantly and dose-dependently reduced"},
      {"measurement": "inhibitory activity on IL-6 production at 10 μM, compared with ibrutinib", "setting": "[2]; [5]", "value": "comparable with that of ibrutinib at 2 μM"},
      {"measurement": "production of TNF-α", "setting": "[3]; [4]", "value": "significantly and dose-dependently reduced"},
      {"measurement": "inhibitory activity on TNF-α production at 10 μM, compared with ibrutinib", "setting": "[3]; [5]", "value": "comparable with that of ibrutinib at 2 μM"}
    ]}
  ]
}
